In US6737383B1, “Herbicidal oxadiazolidines” (priority 1999, dated 2004):

Columns and labels:
[1] = system: bedstraw; experiment: Test B pre/postemergence bedstraw; format: in vivo, Galium aparine
Method in brief: (§1)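 Response is a visual 0-to-10 score relative to untreated plants, where 0 means no effect and 10 means complete control, taken twelve to sixteen days after application. Treatments went onto soil at planting and onto foliage of 1- to 4-leaf plants, using a surfactant-containing non-phytotoxic solvent.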

[2] = system: blackgrass; experiment: Test B pre/postemergence blackgrass; format: in vivo, Alopecurus myosuroides
Method in brief: as §1

[3] = system: surinam grass; experiment: Test B pre/postemergence surinam grass; format: in vivo, Brachiaria decumbens
Method in brief: as §1

[4] = system: cocklebur; experiment: Test B pre/postemergence cocklebur; format: in vivo, Xanthium strumarium
Method in brief: as §1

[5] = system: corn; experiment: Test B pre/postemergence corn; format: in vivo, Zea mays
Method in brief: as §1

[6] = system: crabgrass; experiment: Test B pre/postemergence crabgrass; format: in vivo, Digitaria sanguinalis
Method in brief: as §1

[7] = system: giant foxtail; experiment: Test B pre/postemergence giant foxtail; format: in vivo, Setaria faberii
Method in brief: as §1

[8] = system: morningglory; experiment: Test B pre/postemergence morningglory; format: in vivo, Ipomoea hederacea
Method in brief: as §1

[9] = system: pigweed; experiment: Test B pre/postemergence pigweed; format: in vivo, Amaranthus retroflexus
Method in brief: as §1

[10] = system: soybean; experiment: Test B pre/postemergence soybean; format: in vivo, Glycine max
Method in brief: as §1

[11] = system: sugar beet; experiment: Test B pre/postemergence sugar beet; format: in vivo, Beta vulgaris
Method in brief: as §1

[12] = system: wild oat; experiment: Test B pre/postemergence wild oat; format: in vivo, Avena fatua
Method in brief: as §1

[13] = system: purple nutsedge; experiment: Test B pre/postemergence purple nutsedge; format: in vivo, Cyperus rotundus
Method in brief: as §1

[14] = system: rice; experiment: Test B flood test rice; format: in vivo, Oryza sativa
Method in brief: (§2)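 Each value is a visual injury score relative to controls, with 10 meaning complete control and 0 no effect. Evaluation took place twelve to sixteen days after the 2-leaf-stage plants were treated and kept in the greenhouse.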

[15] = system: smallflower flatsedge; experiment: Test B flood test smallflower flatsedge; format: in vivo, Cyperus difformis
Method in brief: as §2

[16] = system: duck salad; experiment: Test B flood test duck salad; format: in vivo, Heteranthera limosa
Method in brief: as §2

[17] = Postemergence, Rate 62 g/ha, scale 0 to 10, 0 is no effect, 10 is complete control
[18] = Postemergence, Rate 250 g/ha, scale 0 to 10, 0 no effect, 10 complete control
[19] = Preemergence, Rate 62 g/ha, scale 0 to 10 (0 no effect, 10 complete control)
[20] = Preemergence, Rate 125 g/ha, scale 0 to 10 (0 no effect, 10 complete control)
[21] = Preemergence, Rate 250 g/ha, scale of 0 to 10 where 0 is no effect and 10 is complete control
[22] = Preemergence, Rate 500 g/ha, scale 0 (no effect) to 10 (complete control)
[23] = Rate 125 g/ha, Postemergence, scale 0 to 10, 0 no effect, 10 complete control
[24] = Rate 500 g/ha, Postemergence, scale 0 to 10, 0 no effect, 10 complete control
[25] = Rate 125 g/ha, Postemergence section (flood test species), scale 0 to 10, 0 no effect, 10 complete control
[26] = Rate 250 g/ha, headed Pre-emergence (flood test species), scale 0 to 10 (0 no effect, 10 complete control)
[27] = Rate 500 g/ha, headed Pre-emergence (flood test species), scale 0 to 10 (0 no effect, 10 complete control)
[28] = Rate 500 g/ha, listed under Postemergence (flood test species), scale 0 to 10, 0 no effect, 10 complete control
[29] = Rate 1000 g/ha, Pre-emergence (as headed), scale 0 to 10
[30] = Rate 2000 g/ha, Pre-emergence (as headed), scale 0 to 10
[31] = flood test, listed under Postemergence, Rate 250 g/ha, scale 0 to 10, 0 no effect, 10 complete control

CC(C)N(C(=O)n1oc(=O)n(Cc2ccccc2)c1=O)c1ccc(F)cc1 [Compound 78]
Bedstraw plant response rating [1, 17]: 0
Bedstraw plant response rating [1, 18]: 4
Bedstraw plant response rating [1, 19]: 0
Plant response rating, Bedstraw [1, 20]: 0
Plant response rating, Bedstraw [1, 21]: 0
Bedstraw plant response rating [1, 22]: 0
Bedstraw plant response rating [1, 23]: 0
Bedstraw plant response rating [1, 24]: 8
Blackgrass plant response rating [2, 17]: 0
Blackgrass plant response rating [2, 18]: 3
Blackgrass plant response rating [2, 19]: 2
Plant response rating, Blackgrass [2, 20]: 4
Plant response rating, Blackgrass [2, 21]: 4
Blackgrass plant response rating [2, 22]: 6
Blackgrass plant response rating [2, 23]: 3
Blackgrass plant response rating [2, 24]: 7
B. signalgrass plant response rating [3, 17]: 0
B. signalgrass plant response rating [3, 18]: 4
B. signalgrass plant response rating [3, 19]: 0
Plant response rating, B. signalgrass [3, 20]: 1
Plant response rating, B. signalgrass [3, 21]: 5
B. signalgrass plant response rating [3, 22]: 9
B. signalgrass plant response rating [3, 23]: 0
B. signalgrass plant response rating ([3]; Rate 500 g/ha, Postemergence, scale of 0 to 10 where 0 is no effect and 10 is complete control): 6
Cocklebur plant response rating [4, 18]: 2
Cocklebur plant response rating [4, 19]: 0
Plant response rating, Cocklebur [4, 20]: 0
Plant response rating, Cocklebur [4, 21]: 0
Cocklebur plant response rating [4, 22]: 0
Cocklebur plant response rating [4, 23]: 2
Cocklebur plant response rating [4, 24]: 3
Corn plant response rating [5, 17]: 0
Corn plant response rating [5, 18]: 0
Corn plant response rating [5, 19]: 0
Plant response rating, Corn [5, 20]: 0
Plant response rating, Corn [5, 21]: 0
Corn plant response rating [5, 22]: 0
Corn plant response rating [5, 23]: 0
Corn plant response rating [5, 24]: 0
Crabgrass plant response rating [6, 17]: 0
Crabgrass plant response rating [6, 18]: 5
Crabgrass plant response rating [6, 19]: 7
Plant response rating, Crabgrass [6, 20]: 9
Plant response rating, Crabgrass [6, 21]: 9
Crabgrass plant response rating [6, 22]: 10
Crabgrass plant response rating [6, 23]: 2
Crabgrass plant response rating [6, 24]: 9
Giant foxtail plant response rating [7, 17]: 0
Giant foxtail plant response rating [7, 18]: 3
Giant foxtail plant response rating [7, 19]: 8
Plant response rating, Giant foxtail [7, 20]: 8
Plant response rating, Giant foxtail [7, 21]: 9
Giant foxtail plant response rating [7, 22]: 9
Giant foxtail plant response rating [7, 23]: 3
Giant foxtail plant response rating [7, 24]: 4
Morningglory plant response rating [8, 17]: 7
Morningglory plant response rating [8, 18]: 10
Morningglory plant response rating [8, 19]: 0
Plant response rating, Morningglory [8, 20]: 0
Plant response rating, Morningglory [8, 21]: 0
Morningglory plant response rating [8, 22]: 0
Morningglory plant response rating [8, 23]: 8
Morningglory plant response rating [8, 24]: 10
Redroot pigweed plant response rating [9, 17]: 2
Redroot pigweed plant response rating [9, 18]: 3
Redroot pigweed plant response rating [9, 19]: 0
Plant response rating, Redroot pigweed [9, 20]: 0
Plant response rating, Redroot pigweed [9, 21]: 6
Redroot pigweed plant response rating [9, 22]: 6
Redroot pigweed plant response rating [9, 23]: 3
Redroot pigweed plant response rating [9, 24]: 6
Soybean plant response rating [10, 17]: 1
Soybean plant response rating [10, 18]: 2
Soybean plant response rating [10, 19]: 0
Plant response rating, Soybean [10, 20]: 0
Plant response rating, Soybean [10, 21]: 0
Soybean plant response rating [10, 22]: 0
Soybean plant response rating [10, 23]: 1
Soybean plant response rating [10, 24]: 4
Sugarbeets plant response rating [11, 17]: 2
Sugarbeets plant response rating [11, 18]: 4
Sugarbeets plant response rating [11, 19]: 0
Plant response rating, Sugarbeets [11, 20]: 0
Plant response rating, Sugarbeets [11, 21]: 5
Sugarbeets plant response rating [11, 22]: 5
Sugarbeets plant response rating [11, 23]: 4
Sugarbeets plant response rating [11, 24]: 7
Wild oats plant response rating [12, 17]: 0
Wild oats plant response rating [12, 18]: 0
Wild oats plant response rating [12, 19]: 0
Plant response rating, Wild oats [12, 20]: 2
Plant response rating, Wild oats [12, 21]: 6
Wild oats plant response rating [12, 22]: 6
Wild oats plant response rating [12, 23]: 0
Wild oats plant response rating [12, 24]: 2
Nutsedge plant response rating [13, 17]: 0
Nutsedge plant response rating [13, 18]: 0
Nutsedge plant response rating [13, 19]: 0
Plant response rating, Nutsedge [13, 20]: 0
Plant response rating, Nutsedge [13, 21]: 0
Nutsedge plant response rating [13, 22]: 0
Nutsedge plant response rating [13, 23]: 0
Nutsedge plant response rating [13, 24]: 0
Rice plant response rating [14, 17]: 0
Rice plant response rating [14, 25]: 0
Rice plant response rating [14, 26]: 0
Plant response rating, Rice [14, 27]: 0
Rice plant response rating [14, 28]: 2
Rice plant response rating [14, 29]: 0
Rice plant response rating [14, 30]: 0
Rice plant response rating [14, 31]: 0
S. Flatsedge plant response rating [15, 17]: 0
S. Flatsedge plant response rating ([15]; Pre-emergence, Rate 1000 g/ha, scale 0 to 10 (0 no effect, 10 complete control)): 0
S. Flatsedge plant response rating [15, 25]: 0
S. Flatsedge plant response rating [15, 26]: 0
Plant response rating, S. Flatsedge [15, 27]: 0
S. Flatsedge plant response rating [15, 28]: 4
S. Flatsedge plant response rating [15, 30]: 7
S. Flatsedge plant response rating [15, 31]: 0
Ducksalad plant response rating [16, 17]: 0
Ducksalad plant response rating [16, 25]: 0
Ducksalad plant response rating [16, 26]: 0
Plant response rating, Ducksalad [16, 27]: 0
Ducksalad plant response rating [16, 28]: 0
Ducksalad plant response rating [16, 29]: 0
Ducksalad plant response rating [16, 30]: 0
Ducksalad plant response rating [16, 31]: 0
